Experimental data as given in ChEMBL document CHEMBL4823296, “NMR-Guided Design of Potent and Selective EphA4 Agonistic Ligands” (J Med Chem, 2021).
Non-standard residues stand in square brackets, D forms with d. Residues, ends and D or L forms follow the SMILES beside them. *: point of attachment. Phe(4-(2-MeO-Ph)) = COc1ccccc1-c1ccc(C[C@H](N)C(=O)O)cc1; Cyclohexanoyl(1S,3S-3-NH2) = N[C@H]1CCC[C@H](C(=O)*)C1; Phe(4-guanidino) = N=C(N)Nc1ccc(C[C@H](N)C(=O)O)cc1; Trp(6-OMe) = COc1ccc2c(C[C@H](N)C(=O)O)c[nH]c2c1; Trp(5-OH) = N[C@@H](Cc1c[nH]c2ccc(O)cc12)C(=O)O; NH(4-morpholinophenyl) = c1cc(N2CCOCC2)ccc1N*; Trp(7-aza) = N[C@@H](Cc1c[nH]c2ncccc12)C(=O)O; Bip = N[C@@H](Cc1ccc(-c2ccccc2)cc1)C(=O)O; 1Nal = N[C@@H](Cc1cccc2ccccc12)C(=O)O; d(hArg) = N=C(N)NCCCC[C@@H](N)C(=O)O; hArg = N=C(N)NCCCC[C@H](N)C(=O)O; X4 = COc1cc(CN*)cc(OC)c1; GABA = NCCCC(=O)O; X2 = Oc1ccccc1N*

Key:
Ephrin type-A receptor 4 [1] = target: T1, Ephrin type-A receptor 4 (Homo sapiens, UniProt P54764)
Description: Binding affinity to N-terminal His tagged EphA4 LBD (unknown origin) (29 to 209 residues) expressed in Rosetta-Gami B(DE3) cells assessed as change in enthalpy by isothermal titration calorimetry

Ephrin type-A receptor 4 [2] = target: T1, Ephrin type-A receptor 4; assay: Binding affinity to N-terminal His tagged EphA4 LBD (unknown origin) (29 to 209 residues) expressed in Rosetta-Gami B(DE3) cells by isothermal titration calorimetry
Ephrin type-A receptor 4 [3] = target: T1, Ephrin type-A receptor 4; remark: listed apart in the source
Description: Binding affinity to N-terminal His tagged EphA4 LBD (unknown origin) (29 to 209 residues) expressed in Rosetta-Gami B(DE3) cells assessed as change in entropy by isothermal titration calorimetry

[4] = Aqueous solubility of compound; format: physicochemical; conditions: buffer
Ephrin type-A receptor 2 = Ephrin type-A receptor 2 (Homo sapiens, UniProt P29317); assay: Binding affinity to N-terminal His tagged EphA2 LBD (27 to 200 residues) (unknown origin) expressed in Origami (DE3) cells by isothermal titration calorimetry
Ephrin type-A receptor 2, sequence (P29317 whole entry, the tested form may be a part): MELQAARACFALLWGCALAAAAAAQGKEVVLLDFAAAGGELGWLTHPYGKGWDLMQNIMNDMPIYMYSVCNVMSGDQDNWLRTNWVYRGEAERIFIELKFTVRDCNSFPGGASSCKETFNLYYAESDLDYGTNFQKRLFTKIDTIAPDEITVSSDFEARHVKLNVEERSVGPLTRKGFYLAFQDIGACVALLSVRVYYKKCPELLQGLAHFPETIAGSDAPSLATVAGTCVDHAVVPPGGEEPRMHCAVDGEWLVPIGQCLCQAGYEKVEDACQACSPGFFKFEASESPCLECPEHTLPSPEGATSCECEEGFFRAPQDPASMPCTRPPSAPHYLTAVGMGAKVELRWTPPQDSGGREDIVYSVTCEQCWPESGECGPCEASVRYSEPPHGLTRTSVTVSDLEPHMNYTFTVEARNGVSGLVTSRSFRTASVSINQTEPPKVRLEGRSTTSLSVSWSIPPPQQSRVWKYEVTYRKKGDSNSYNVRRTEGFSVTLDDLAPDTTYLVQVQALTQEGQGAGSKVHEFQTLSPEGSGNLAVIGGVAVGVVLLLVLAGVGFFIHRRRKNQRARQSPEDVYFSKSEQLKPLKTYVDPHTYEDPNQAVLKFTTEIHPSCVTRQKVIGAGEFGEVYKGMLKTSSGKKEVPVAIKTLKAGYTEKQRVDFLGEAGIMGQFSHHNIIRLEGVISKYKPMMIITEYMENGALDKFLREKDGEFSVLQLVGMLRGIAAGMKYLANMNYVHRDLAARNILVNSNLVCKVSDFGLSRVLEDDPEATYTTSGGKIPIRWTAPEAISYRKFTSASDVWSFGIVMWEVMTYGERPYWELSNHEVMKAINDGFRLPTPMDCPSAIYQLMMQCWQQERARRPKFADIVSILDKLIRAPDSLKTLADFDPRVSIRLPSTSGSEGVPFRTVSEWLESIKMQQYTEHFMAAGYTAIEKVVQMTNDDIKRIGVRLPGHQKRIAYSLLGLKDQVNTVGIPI

T1 sequence (P54764 whole entry, the tested form may be a part): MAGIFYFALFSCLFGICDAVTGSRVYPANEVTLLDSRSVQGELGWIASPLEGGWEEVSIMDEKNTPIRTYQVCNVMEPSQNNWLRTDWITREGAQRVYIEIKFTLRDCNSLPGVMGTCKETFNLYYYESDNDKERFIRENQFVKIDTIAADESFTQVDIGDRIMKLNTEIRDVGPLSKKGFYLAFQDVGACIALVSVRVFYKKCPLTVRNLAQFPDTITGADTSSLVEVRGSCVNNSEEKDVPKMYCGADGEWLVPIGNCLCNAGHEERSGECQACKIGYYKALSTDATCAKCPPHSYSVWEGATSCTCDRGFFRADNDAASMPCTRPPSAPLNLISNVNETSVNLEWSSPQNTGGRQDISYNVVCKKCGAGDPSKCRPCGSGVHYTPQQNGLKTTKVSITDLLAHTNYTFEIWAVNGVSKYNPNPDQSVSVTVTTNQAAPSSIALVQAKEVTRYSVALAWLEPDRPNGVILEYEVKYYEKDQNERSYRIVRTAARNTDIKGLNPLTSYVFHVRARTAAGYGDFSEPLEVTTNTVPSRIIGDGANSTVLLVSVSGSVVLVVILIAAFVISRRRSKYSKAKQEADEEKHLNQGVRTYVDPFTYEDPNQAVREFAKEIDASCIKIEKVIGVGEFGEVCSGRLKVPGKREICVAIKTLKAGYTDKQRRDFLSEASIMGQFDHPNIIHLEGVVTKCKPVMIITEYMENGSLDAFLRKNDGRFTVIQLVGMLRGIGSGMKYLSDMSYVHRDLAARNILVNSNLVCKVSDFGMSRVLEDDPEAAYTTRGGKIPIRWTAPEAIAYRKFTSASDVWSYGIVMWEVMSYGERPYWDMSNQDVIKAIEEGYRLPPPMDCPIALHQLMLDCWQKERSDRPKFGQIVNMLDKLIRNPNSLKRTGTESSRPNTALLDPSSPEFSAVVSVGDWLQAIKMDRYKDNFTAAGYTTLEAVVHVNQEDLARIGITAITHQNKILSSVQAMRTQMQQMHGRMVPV

Structure (SMILES)	deltaH (Ephrin type-A receptor 4 [1]) [kcal/mol]	Kd (Ephrin type-A receptor 4 [2]) [µM]	-TdeltaS (Ephrin type-A receptor 4 [3]) [kcal/mol]	solubility [4] [mM]	Kd (Ephrin type-A receptor 2)
COc1cc(CNC(=O)CNC(=O)[C@H](CCCCNC(=N)N)NC(=O)[C@H](Cc2ccc(-c3ccccc3)cc2)NC(=O)[C@H](Cc2c[nH]c3ccc(O)cc23)NC(=O)CCCN)cc(OC)c1 (H-[GABA][Trp(5-OH)][Bip][hArg]G-X4)	-11.3	0.307	2.39	–	–
N=C(N)Nc1ccc(C[C@H](NC(=O)[C@H](Cc2ccc(-c3ccccc3)cc2)NC(=O)[C@H](Cc2c[nH]c3ccccc23)NC(=O)CCCN)C(N)=O)cc1 (H-[GABA]W[Bip][Phe(4-guanidino)]-NH2)	-9.43	1.16	1.33	–	–
N=C(N)NCCCC[C@H](NC(=O)[C@H](Cc1ccc(-c2ccccc2)cc1)NC(=O)[C@H](Cc1c[nH]c2ccc(O)cc12)NC(=O)CCCN)C(=O)NCC(=O)Nc1ccc(N2CCOCC2)cc1 (H-[GABA][Trp(5-OH)][Bip][hArg]G-{NH(4-morpholinophenyl)})	-11.2	0.094	1.63	–	–
N=C(N)NCCCC[C@H](NC(=O)[C@H](Cc1ccc(-c2ccccc2)cc1)NC(=O)[C@H](Cc1c[nH]c2ccc(O)cc12)NC(=O)[C@@H]1CCC[C@@H](N)C1)C(N)=O	-9.39	1.21	1.32	–	–
COc1ccccc1-c1ccc(C[C@H](NC(=O)[C@H](Cc2c[nH]c3ccc(O)cc23)NC(=O)[C@H]2CCC[C@H](N)C2)C(=O)N[C@@H](CCCCNC(=N)N)C(=O)NCC(=O)Nc2ccc(N3CCOCC3)cc2)cc1 ({Cyclohexanoyl(1S,3S-3-NH2)}-[Trp(5-OH)][Phe(4-(2-MeO-Ph))][hArg]G-{NH(4-morpholinophenyl)})	–	0.106	–	> 50	Not Active
N=C(N)NCCCC[C@H](NC(=O)[C@H](Cc1cccc2ccccc12)NC(=O)[C@H](Cc1c[nH]c2ccc(O)cc12)NC(=O)CCCN)C(N)=O (H-[GABA][Trp(5-OH)][1Nal][hArg]-NH2)	-8.22	–	1.46	–	–
N=C(N)NCCCC[C@H](NC(=O)[C@H](Cc1ccc(-c2ccccc2)cc1)NC(=O)[C@H](Cc1c[nH]c2ccc(O)cc12)NC(=O)CCCN)C(=O)NCC(=O)Nc1ccccc1O (H-[GABA][Trp(5-OH)][Bip][hArg]G-X2)	-12	0.191	2.88	–	–
N=C(N)NCCCC[C@H](NC(=O)[C@H](Cc1ccc(-c2ccccc2)cc1)NC(=O)[C@H](Cc1c[nH]c2ncccc12)NC(=O)CCCN)C(N)=O (H-[GABA][Trp(7-aza)][Bip][hArg]-NH2)	-7.27	16.3	0.74	–	–
N=C(N)NCCC[C@H](NC(=O)[C@H](Cc1ccc(-c2ccccc2)cc1)NC(=O)[C@H](Cc1c[nH]c2ccc(O)cc12)NC(=O)CCCN)C(N)=O (H-[GABA][Trp(5-OH)][Bip]R-NH2)	-11	0.459	2.35	–	–
N=C(N)NCCCC[C@@H](NC(=O)[C@H](Cc1ccc(-c2ccccc2)cc1)NC(=O)[C@H](Cc1c[nH]c2ccccc12)NC(=O)CCCN)C(N)=O (H-[GABA]W[Bip][d(hArg)]-NH2)	-9.26	0.27	0.3	–	–
NCCCC[C@H](NC(=O)[C@H](Cc1ccc(-c2ccccc2)cc1)NC(=O)[C@H](Cc1c[nH]c2ccc(O)cc12)NC(=O)CCCN)C(N)=O (H-[GABA][Trp(5-OH)][Bip]K-NH2)	-11.2	0.437	2.54	–	–
COc1ccc2c(C[C@H](NC(=O)CCCN)C(=O)N[C@@H](Cc3ccc(-c4ccccc4)cc3)C(=O)N[C@@H](CCCCNC(=N)N)C(N)=O)c[nH]c2c1 (H-[GABA][Trp(6-OMe)][Bip][hArg]-NH2)	-10.5	2.46	2.84	–	–
N=C(N)NCCCC[C@H](NC(=O)[C@H](Cc1ccc(-c2ccccc2)cc1)NC(=O)[C@H](Cc1c[nH]c2ccccc12)NC(=O)CCCN)C(N)=O (H-[GABA]W[Bip][hArg]-NH2)	-10.7	0.663	2.27	–	–
N=C(N)NCCCC[C@H](NC(=O)[C@H](Cc1ccc(-c2ccc(Cl)cc2)cc1)NC(=O)[C@H](Cc1c[nH]c2ccc(O)cc12)NC(=O)CCCN)C(N)=O	-10.4	0.749	2	–	–
